# Literature values, collected in patent US20200101067A1 (IRR, Inc., priority 2013, published 2020).
# Where two headings read alike, the source gives them in different places.
# How the values were obtained:
# H1 receptor = H1 receptor (Homo sapiens, UniProt P35367); conditions: acidic pH, inflamed tissue
# [1] = not given; remark: listed apart in the source
# H1 receptor, sequence (P35367 whole entry): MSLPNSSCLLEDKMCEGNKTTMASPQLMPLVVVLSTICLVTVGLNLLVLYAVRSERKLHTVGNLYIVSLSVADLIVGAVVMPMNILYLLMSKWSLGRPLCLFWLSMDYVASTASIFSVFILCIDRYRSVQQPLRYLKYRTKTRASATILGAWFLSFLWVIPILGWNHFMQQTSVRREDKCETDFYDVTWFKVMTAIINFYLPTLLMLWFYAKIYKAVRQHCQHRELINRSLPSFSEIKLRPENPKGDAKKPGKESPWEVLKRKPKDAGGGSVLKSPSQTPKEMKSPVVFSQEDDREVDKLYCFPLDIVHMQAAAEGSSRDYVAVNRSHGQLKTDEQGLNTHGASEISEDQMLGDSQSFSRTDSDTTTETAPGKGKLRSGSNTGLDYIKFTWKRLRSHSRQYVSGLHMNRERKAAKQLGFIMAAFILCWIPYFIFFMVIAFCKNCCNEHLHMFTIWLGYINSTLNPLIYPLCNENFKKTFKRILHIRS
Dose that can be safely administered (studies in humans),Enhanced receptor affinity over first generation mepyramine / first generation molecules (H1 receptor) [×],Enhanced receptor affinity over first generation mepyramine / first generation molecules (H1 receptor; listed as levocetirizine),Time to steady state level ([1]; in vivo) [h],Compound,"Principal side effect at higher doses (higher doses, up to 30 mg/day)","Eosinophil migration (IL-4, IL-6, and IL-8)","Inflammatory mediators IL-4, IL-6, and IL-8 (IL-4, IL-6, and IL-8)",Rhinovirus-induced ICAM-1 and cytokine expression and viral replication (human rhinovirus; airway epithelial cells),"ICAM-1, IL-6, IL-8, TLR3 expression and NF-kappa B activation (human rhinovirus; stated as in vivo)","Dose without clinically important adverse experiences (adult patients, 22 weeks)","Dose without clinically important adverse experiences (short-term studies, approximately one week)","Plasma concentration area under the curve profile, IV 7 mg vs approved 10 mg oral tablet ([1]; IV 7 mg)",Linear pharmacokinetics to dose ([1]; in vivo) [mg],Steady-state level reached ([1]; in vivo),Time to peak plasma level ([1]; in vivo) [h],"Steady-state level reached ([1]; in vivo, listed as montelukast)",Effect of a standard meal on oral bioavailability and Cmax ([1]; oral)
up to 30 mg/day,5,up to 5 ×,40,"O=C(O)COCCN1CCN([C@H](c2ccccc2)c2ccc(Cl)cc2)CC1 [Levocetirizine, levocetirizine]",Sedation,decrease,decrease,inhibits,decrease,,,,,,,,
,,,,"CC(C)(O)c1ccccc1CC[C@@H](SCC1(CC(=O)O)CC1)c1cccc(/C=C/c2ccc3ccc(Cl)cc3n2)c1 [Montelukast, montelukast]",,,,,,up to 200 mg/day,up to 900 mg/day,comparable,≤ 50,less than two,3 to 4,two,not affected
